Results published in patent US20170252346A1, “PHARMACEUTICAL COMPOSITION FOR THE TREATMENT OF ACUTE TOOTH OR JAW PAIN” (SANOFI-AVENTIS DEUTSCHLAND GMBH, priority 2014, published 2017).

Tested on: patients with post-operative dental pain
Assay: Single-center, randomized, two-stage, parallel-group double-blind clinical study of single-dose efficacy and safety in post-operative dental pain
Type: in vivo, human
Settings: ibuprofen 400 mg, caffeine 100 mg
Description: Clinical trials are performed in patients using the tablets produced according to example 1 and using the following study design:
Secondary goal: Evaluation of the efficacy and safety of multiple doses of the fixed combination compared with ibuprofen alone over a post-operative time period of 5 days (study stage 2).
Male and female patients between the ages of 18 and 55 years, scheduled for the extraction of 3 to 4 unsound wisdom teeth, with at least 2 extracted molars were recruited; the baseline of dental pain intensity must be at least moderate on a verbal evaluation scale and at least 5 on a numerical evaluation scale ranging from 0 to 10.
Following surgery, one tablet every 6-8 hours for 5 days has been administered.
The time-weighted sum of pain relief (PAR) and the difference in pain intensity (PID) from 0 to 8 hours (SPRID0-8H)
Secondary Endpoint • The time-weighted sum of PAR and PID from 0 to 2 hours (SPRID0-2H) • Duration of pain relief • Time to significant pain relief
The pain intensity (PI) was evaluated in a diary before administration and at 0.25, 0.5, 0.75, 1, 1.5, 2, 3, 4, 5, 6, 7 and 8 hours after the first dose of the study medication using an 11-point numerical rating scale (NPRS) from 0=“no pain” to 10=“worst possible pain”.
The pain relief (PAR) beginning from pain onset was evaluated in a patient diary using a 5-point rating scale (VRS) (0=no pain relief; 1=a little pain relief; 2=some pain relief; 3=much pain relief; 4=complete pain relief) at the same time points as for the PI evaluation.
As soon as a patient needed an emergency medication or a second dose of the medication within less than 8 hours, PI and PAR were evaluated before the emergency medication or second dose was administered.
The time-weighted sum of pain relief (PAR) and the pain intensity difference (PID) relative to baseline between 0 and 8 hours is determined as follows:
PID=PI at baseline−PI at the specific time point (here, higher PID values represent greater benefit for the patient).
Higher values of the SPRID0-8 h likewise indicate greater benefit for the patient.

[1] = Kaplan-Meyer analysis, single dose

CC(C)Cc1ccc(C(C)C(=O)O)cc1 (racemic) [Ibuprofen, (+/−) 2-(p-isobutylphenyl)-propionic acid]
Mean time to obtain relief (time to significant/meaningful pain relief) [1]: 2.5 h
Median duration of action [1]: 7.1 h
Adjusted Mean SPRID0-2h value (time-weighted sum of PAR and PID 0 to 2 hours after single dose): 6.990
Adjusted Mean SPRID0-8h value (time-weighted sum of pain relief (PAR) and pain intensity difference (PID) 0 to 8 hours after single dose, study stage 1): 40.165
